Experimental data published in publication PMC9095880, “AIMP2-DX2 provides therapeutic interface to control KRAS-driven tumorigenesis” (Nature Communications, 2022).

Target: T1, AIMP2 (Homo sapiens, UniProt Q13155)
T1 construct: purified AIMP2, in vitro pull-down
T1 sequence (Q13155 1-320): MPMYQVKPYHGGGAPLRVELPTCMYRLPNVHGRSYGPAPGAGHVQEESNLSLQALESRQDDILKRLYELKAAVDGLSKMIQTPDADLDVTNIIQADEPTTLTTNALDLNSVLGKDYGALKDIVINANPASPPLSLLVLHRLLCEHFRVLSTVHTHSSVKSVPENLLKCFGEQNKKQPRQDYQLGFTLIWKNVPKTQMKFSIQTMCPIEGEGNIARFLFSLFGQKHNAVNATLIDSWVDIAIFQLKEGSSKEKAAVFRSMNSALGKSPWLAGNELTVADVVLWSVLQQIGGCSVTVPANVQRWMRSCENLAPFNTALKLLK
Test: in vitro pull-down with purified AIMP2
Settings: no binding to cellular AIMP2 in immunoprecipitation

COc1ccc(-c2ccc(CN(C(=O)c3cnc4ccccc4n3)c3ccccc3F)s2)cc1C [BC-DXI-32982]
in vitro pull-down with purified AIMP2: DXI showed binding to the purified AIMP2 in an in vitro pull-down assay
